Publication PMC9687798, “Atypical Substrates of the Organic Cation Transporter 1” (Biomolecules, 2022)
Read-outs that look alike come from different tables or passages of the source.

Assays:
human OCT1*1 (wild-type) [1] = biological target: T1, human OCT1*1 (wild-type) (Homo sapiens, UniProt O15245); assay: Concentration-dependent uptake (transport kinetics) in HEK293 cells overexpressing OCT1 wild-type; settings: for Clint (±SEM): intrinsic clearance = ratio of Vmax and KM, OCT1 wild-type
T1 sequence (O15245 1-554): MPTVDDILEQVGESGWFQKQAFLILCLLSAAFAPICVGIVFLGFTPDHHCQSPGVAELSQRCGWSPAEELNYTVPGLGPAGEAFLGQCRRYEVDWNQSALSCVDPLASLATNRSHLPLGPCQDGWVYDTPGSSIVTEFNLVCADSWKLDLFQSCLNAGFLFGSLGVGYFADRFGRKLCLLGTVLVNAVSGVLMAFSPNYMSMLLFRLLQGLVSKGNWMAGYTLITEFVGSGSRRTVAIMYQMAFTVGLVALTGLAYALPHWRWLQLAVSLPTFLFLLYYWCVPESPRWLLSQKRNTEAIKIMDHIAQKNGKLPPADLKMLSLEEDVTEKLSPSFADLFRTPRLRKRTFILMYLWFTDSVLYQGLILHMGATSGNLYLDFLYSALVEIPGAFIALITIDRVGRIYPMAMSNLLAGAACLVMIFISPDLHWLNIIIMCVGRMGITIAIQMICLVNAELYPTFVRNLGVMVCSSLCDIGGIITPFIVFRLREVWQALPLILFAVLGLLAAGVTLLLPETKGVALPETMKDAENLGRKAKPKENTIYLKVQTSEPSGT

human OCT1*1 (wild-type) [2] = biological target: T1, human OCT1*1 (wild-type); assay: Cellular uptake ratio, OCT1-overexpressing HEK293 cells vs empty vector; format: cell-based
Method: (§1) The wild-type cell lines of OCT1 and OCT2, as well as the variant cell lines OCT1*2 and *3, were generated using the Flp-In system (Thermo Fisher Scientific, Darmstadt, Germany) as described in previous publications. The cell line overexpressing OCT3 was a kind gift from Dr. Koepsell and Dr. Gorbulev (University of Würzburg, Germany). Cells transfected with the empty pcDNA5/FRT vector were used for the transport experiments as a control cell line. All cells were cultured approximately up to passage 30.
(§2) Forty-eight hours before the transport experiments, 600,000 cells were plated on 12-well plates pre-coated with poly-D-lysine and incubated at 37 °C with 5% CO2. The prepared 12-well plate with cells was positioned on a heating plate pre-warmed to 37 °C. After removing the medium, the cells were washed with 37 °C HBSS+ (10 mM HEPES in Hank’s balanced salt solution, pH 7.4). Then, one pre-defined concentration of a substrate was added to each well. The incubation period was stopped by adding 2 mL of 4 °C HBSS+ and removing the cells from the heating plate. The cells were washed twice with 4 °C HBSS+. For cell lysis, the cells were incubated for 15 min with 500 µL of 80% acetonitrile (LGC Standards, Wesel, Germany), which contained a respective internal standard (Table 1).
(§3) For concentration-dependent transport, the cells were incubated with defined substrate concentrations (0.1, 1, 10, 30, 100, 300, 600, 1000 µM) for the respective pre-defined incubation times. […] The uptake by a transporter was normalised to the uptake by empty vector-transfected cells. […] The results of transport experiments were normalized to the total protein concentration per well. Total protein quantification was performed using a bicinchoninic acid assay with bovine serum albumin as standard.
(§4) The ratios of cellular uptake were calculated by dividing the total uptake of transporter-overexpressing cells by the total uptake into empty vector transfected cells. The concentration-dependent cellular net uptake was used for analysis of transport kinetics by subtracting for each substrate concentration the uptake of empty vector-transfected cells from the uptake of transporter-overexpressing cells. […] The intrinsic clearance Clint was expressed with the ratio of Vmax and KM.

wild-type human OCT2 = biological target: T2, wild-type human OCT2 (Homo sapiens, UniProt O15244); assay: Cellular uptake ratio, OCT2-overexpressing HEK293 cells vs empty vector; format: cell-based
T2 sequence (O15244 1-555): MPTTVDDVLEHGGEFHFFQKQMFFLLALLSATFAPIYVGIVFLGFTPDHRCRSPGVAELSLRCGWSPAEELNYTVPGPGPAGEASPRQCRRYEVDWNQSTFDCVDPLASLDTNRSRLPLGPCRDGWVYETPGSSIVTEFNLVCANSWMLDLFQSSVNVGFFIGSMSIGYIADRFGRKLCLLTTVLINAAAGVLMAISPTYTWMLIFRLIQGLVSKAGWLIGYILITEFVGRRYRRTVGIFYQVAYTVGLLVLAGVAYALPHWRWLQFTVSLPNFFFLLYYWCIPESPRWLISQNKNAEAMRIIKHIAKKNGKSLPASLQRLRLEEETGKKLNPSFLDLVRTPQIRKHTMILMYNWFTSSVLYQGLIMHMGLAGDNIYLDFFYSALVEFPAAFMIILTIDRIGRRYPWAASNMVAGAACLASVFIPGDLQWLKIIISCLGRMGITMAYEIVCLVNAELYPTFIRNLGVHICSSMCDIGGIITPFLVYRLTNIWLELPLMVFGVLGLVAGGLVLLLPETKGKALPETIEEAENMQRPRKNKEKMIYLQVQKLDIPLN
Method: as §1, §2, §3, §4

OCT3 = biological target: T3, OCT3 (Homo sapiens, UniProt O75751); assay: Cellular uptake ratio, OCT3-overexpressing HEK293 cells vs empty vector; format: cell-based
T3 construct: expressed in transfected cells; host or cells: HEK293, stably transfected; gift from Dr. Koepsell and Dr. Gorbulev (University of Würzburg)
T3 sequence (O75751 1-556): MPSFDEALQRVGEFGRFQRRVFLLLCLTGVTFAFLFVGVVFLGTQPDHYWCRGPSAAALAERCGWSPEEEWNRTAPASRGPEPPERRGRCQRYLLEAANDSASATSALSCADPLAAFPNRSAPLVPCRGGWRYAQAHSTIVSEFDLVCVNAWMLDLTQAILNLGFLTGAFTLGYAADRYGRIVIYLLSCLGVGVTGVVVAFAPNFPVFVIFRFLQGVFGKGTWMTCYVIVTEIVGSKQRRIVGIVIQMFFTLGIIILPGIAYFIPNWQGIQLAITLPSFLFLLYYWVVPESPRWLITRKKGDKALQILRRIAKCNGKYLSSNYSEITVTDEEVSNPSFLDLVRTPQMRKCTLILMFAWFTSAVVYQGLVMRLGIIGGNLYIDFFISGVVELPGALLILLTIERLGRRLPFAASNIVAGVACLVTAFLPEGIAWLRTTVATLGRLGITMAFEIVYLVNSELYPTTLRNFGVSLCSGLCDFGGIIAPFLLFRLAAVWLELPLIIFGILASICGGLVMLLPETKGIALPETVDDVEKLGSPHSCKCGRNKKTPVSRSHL
Method: as §1, §2, §3, §4

[3] = good >5, poor 1–5, non-substrate <1 µL/mg protein/min or uptake not above empty vector
[4] = based on ratio uptake data at 1 µM
[5] = net uptake (OCT1 minus empty vector), HEK293, 0.1-1000 µM substrate, Michaelis–Menten
[6] = based on ratio uptake data at 100 µM (footnote *)

Nc1ncn([C@H]2C[C@H](O)[C@@H](CO)O2)c(=O)n1 [Decitabine, decitabine]
OCT1 substrate classification from concentration-dependent uptake (human OCT1*1 (wild-type) [1]; [3]): none of the four antimetabolites showed uptake by OCT1

C[n+]1ccc(-c2ccccc2)cc1 [MPP^+, 1-methyl-4-phenylpyridinium]
uptake ratio by OCT1 (normalised to empty vector) (human OCT1*1 (wild-type) [2]; 1 µM and 100 µM substance): up to 30
OCT1 transport category (human OCT1*1 (wild-type) [2]; [4]): ++ (very good substrates of OCTs that have an intrinsic clearance >15 or show an uptake ratio >10)
Clint (±SEM) (human OCT1*1 (wild-type) [1]): 20.8 ± 5.04 µL/mg Protein/min
Vmax (±SEM) (human OCT1*1 (wild-type) [1]; [5]): 2263 ± 184 pmol/mg Protein/min
Km (human OCT1*1 (wild-type) [1]; read-out: KM (±SEM), net uptake (OCT1 minus empty vector), HEK293, 0.1-1000 µM substrate, Michaelis–Menten): 108 ± 17.4 µM
OCT2 transport category (wild-type human OCT2; [4]): ++ (very good substrates of OCTs that have an intrinsic clearance >15 or show an uptake ratio >10)
uptake ratio by OCT3 (normalised to empty vector) (OCT3; 1 µM and 100 µM substance): relevant uptake
OCT3 transport category (OCT3; [4]): ++ (very good substrates of OCTs that have an intrinsic clearance >15 or show an uptake ratio >10)

C=C1[C@H](CO)[C@@H](O)C[C@@H]1n1cnc2c(=O)[nH]c(N)nc21 [Entecavir, entecavir]
OCT3 transport category (OCT3; [4]): 0 (no transport by OCT1, OCT2, and OCT3 occurred (i.e., no kinetic parameters or uptake ratio <2 without significance))

C[C@@](Cc1ccc(O)c(O)c1)(NN)C(=O)O [Carbidopa, carbidopa]
OCT1 transport category (human OCT1*1 (wild-type) [2]; [6]): 0 (no transport by OCT1, OCT2, and OCT3 occurred (i.e., no kinetic parameters or uptake ratio <2 without significance))
OCT1 substrate classification from concentration-dependent uptake (human OCT1*1 (wild-type) [1]; [3]): linear increase in total uptake of both cell lines
OCT2 transport category (wild-type human OCT2; [6]): 0 (no transport by OCT1, OCT2, and OCT3 occurred (i.e., no kinetic parameters or uptake ratio <2 without significance))
OCT3 transport category (OCT3; [6]): 0 (no transport by OCT1, OCT2, and OCT3 occurred (i.e., no kinetic parameters or uptake ratio <2 without significance))

C[N+]1(C)CCC[C@H]1C(=O)[O-] [Stachydrine, stachydrine]
OCT1 transport category (human OCT1*1 (wild-type) [2]; [4]): 0 (no transport by OCT1, OCT2, and OCT3 occurred (i.e., no kinetic parameters or uptake ratio <2 without significance))
OCT1 substrate classification from concentration-dependent uptake (human OCT1*1 (wild-type) [1]; [3]): very poor OCT1-mediated transport
Vmax (±SEM) (human OCT1*1 (wild-type) [1]; [5]): 238 ± 134 pmol/mg Protein/min
OCT2 transport category (wild-type human OCT2; [4]): 0 (no transport by OCT1, OCT2, and OCT3 occurred (i.e., no kinetic parameters or uptake ratio <2 without significance))
OCT3 transport category (OCT3; [4]): 0 (no transport by OCT1, OCT2, and OCT3 occurred (i.e., no kinetic parameters or uptake ratio <2 without significance))

Nc1ccn([C@@H]2O[C@H](CO)[C@@H](O)[C@@H]2O)c(=O)n1 [Cytarabine, cytarabine]
OCT1 substrate classification from concentration-dependent uptake (human OCT1*1 (wild-type) [1]): none of the four antimetabolites showed uptake by OCT1

O=c1ncccn1[C@@H]1O[C@H](CO)[C@@H](O)[C@H]1O [Zebularine, zebularine]
OCT1 substrate classification from concentration-dependent uptake (human OCT1*1 (wild-type) [1]; [3]): none of the four antimetabolites showed uptake by OCT1

Nc1nc(O)c2ncn(COC(CO)CO)c2n1 [Ganciclovir, ganciclovir]
OCT3 transport category (OCT3; [4]): 0 (no transport by OCT1, OCT2, and OCT3 occurred (i.e., no kinetic parameters or uptake ratio <2 without significance))

C[C@H]1COc2c(N3CCN(C)CC3)c(F)cc3c(=O)c(C(=O)O)cn1c23 [Levofloxacin, levofloxacin]
OCT1 substrate classification from concentration-dependent uptake (human OCT1*1 (wild-type) [1]): poor substrate of OCT1
Clint (±SEM) (human OCT1*1 (wild-type) [1]): 3.77 ± 2.77 µL/mg Protein/min
OCT3 transport category (OCT3; [4]): 0 (no transport by OCT1, OCT2, and OCT3 occurred (i.e., no kinetic parameters or uptake ratio <2 without significance))

Nc1ccn([C@@H]2O[C@H](CO)[C@@H](O)C2(F)F)c(=O)n1 [Gemcitabine, gemcitabine]
OCT1 substrate classification from concentration-dependent uptake (human OCT1*1 (wild-type) [1]; [3]): none of the four antimetabolites showed uptake by OCT1

C[C@H](CS)C(=O)N1CCC[C@H]1C(=O)O [Captopril, captopril]
OCT3 transport category (OCT3; [4]): 0 (no transport by OCT1, OCT2, and OCT3 occurred (i.e., no kinetic parameters or uptake ratio <2 without significance))

Nc1nc2c(ncn2COCCO)c(=O)[nH]1 [Acyclovir, acyclovir]
OCT3 transport category (OCT3; [4]): 0 (no transport by OCT1, OCT2, and OCT3 occurred (i.e., no kinetic parameters or uptake ratio <2 without significance))

Cc1ccc(NC(=O)c2ccc(CN3CCN(C)CC3)cc2)cc1Nc1nccc(-c2cccnc2)n1 [Imatinib, imatinib]
uptake by OCT1 (normalised to empty vector) (human OCT1*1 (wild-type) [2]): did not show uptake by OCT1
